Experimental data published in US20240083944A1 (priority 2021, published 2024).
Starred links: 1 amine or outer side, 2 acyl side, 3 side chain; linkers in the order of their positions; H or OH if unused. Positions of bridges follow the written chain, without caps; N, C: chain ends. Non-standard residues stand in square brackets, D forms with d. Chains are numbered I, II in the order given. X3 = O=C(CCCc1ccc(I)cc1)NCCOCCOCCOCCOCCOCCOCCOCCOCCOCCOCCn1cc(CCC(=O)NC(COCCC(=O)NCCOCCOCCOCCOCCOCCOCCOCCOCCOCCOCCn2cc(CCC(=O)[*:1])nn2)(COCCC(=O)NCCOCCOCCOCCOCCOCCOCCOCCOCCOCCOCCn2cc(CCC(=O)[*:2])nn2)COCCC(=O)NCCOCCOCCOCCOCCOCCOCCOCCOCCOCCOCCn2cc(CCC(=O)[*:3])nn2)nn1; X2 = O=C(CCOCCN(CCOCCC(=O)NCCOCCOCCOCCOCCOCCOCCOCCOCCOCCOCCn1cc(CCC(=O)[*:2])nn1)CCOCCC(=O)NCCOCCOCCOCCOCCOCCOCCOCCOCCOCCOCCn1cc(CCC(=O)[*:3])nn1)NCCOCCOCCOCCOCCOCCOCCOCCOCCOCCOCCn1cc(CCC(=O)[*:1])nn1; X1 = C(c1nc(C[*:2])nc(C[*:3])n1)[*:1]; hArg = N=C(N)NCCCC[C@H](N)C(=O)O; tBuAla = CC(C)(C)C[C@H](N)C(=O)O; Agb = N=C(N)NCC[C@H](N)C(=O)O

How the values were obtained:
SARS-CoV-2 = test: Mouse Efficacy Model; assay type: in vivo, male K18-hACE2 mice; details: 100 mg/kg (tid) for three days, mice infected with SARS-CoV-2
[1] = tested on: SARS-CoV-2 pseudotyped HIV-1 virions, B.1.1.7 (Alpha)
[2] = Pharmacokinetic analysis in mouse; assay type: in vivo; details: 3 mg/kg; for half-life: in vivo
Source text: In one embodiment, the multimeric binding complex additionally comprises a half-life extending moiety. References herein to half-life extending moieities refer to any moiety capable of extending the half-life of the resultant multimeric binding complex in vivo when compared to the half-life of said multimeric binding complex in the absence of said half-life extending moiety.

Substance | total viral RNA in nasal turbinate (SARS-CoV-2; FIG. 4 (A)) | subgenomic RNA in nasal turbinate (SARS-CoV-2; FIG. 4 (B)) | total viral RNA in lung (SARS-CoV-2; FIG. 4 (C)) | subgenomic RNA in lung (SARS-CoV-2; FIG. 4 (D)) | IC50 [1] [nM] | half-life [2] [h] | half-life improvement ([2]; BCY19602 versus BCY18208 (no half-life extending moiety)) [fold]
I: Ac-CPYVAG[Agb][dA]TCL[tBuAla]CK-NH2 / II: Ac-CPYVAG[Agb][dA]TCL[tBuAla]CK-NH2 / III: Ac-CPYVAG[Agb][dA]TCL[tBuAla]CK-NH2 (linker I:1-I:10-I:13, II:1-II:10-II:13, III:1-III:10-III:13 via X1; linker I:14-II:14-III:14 via X2) [BCY17021] | reduction of total viral RNA in nasal turbinate | reduction of subgenomic RNA in nasal turbinate | reduction of total viral RNA in lung | reduction of subgenomic RNA in lung | 0.3 |  | 
I: Ac-CPYVAG[hArg][dA]TCL[tBuAla]CK-NH2 / II: Ac-CPYVAG[hArg][dA]TCL[tBuAla]CK-NH2 / III: Ac-CPYVAG[hArg][dA]TCL[tBuAla]CK-NH2 (linker I:1-I:10-I:13, II:1-II:10-II:13, III:1-III:10-III:13 via X1; linker I:14-II:14-III:14 via X2) [BCY18208] |  |  |  |  |  | 0.3 | 
I: Ac-CPYVAG[hArg][dA]TCL[tBuAla]CK-NH2 / II: Ac-CPYVAG[hArg][dA]TCL[tBuAla]CK-NH2 / III: Ac-CPYVAG[hArg][dA]TCL[tBuAla]CK-NH2 (linker I:1-I:10-I:13, II:1-II:10-II:13, III:1-III:10-III:13 via X1; linker I:14-II:14-III:14 via X3) [BCY19602] |  |  |  |  |  | 3.1 | 10
